How the values were obtained:
Format in all cases: in vivo
Conditions in all cases: application rate 1280 g/ha, scored visually after about 3 weeks
Viola tricolor = test: Pre-emergence herbicidal action, VIOTR
Excerpt: (§1) Pre-Emergence Herbicidal Action Seeds of mono- and dicotyledonous weed plants or crop plants were placed in sandy loam in wood fibre pots and covered with soil. The formulated compounds of the general formula (I) according to the invention were then applied to the surface of the covering soil in the form of an aqueous suspension or emulsion at an application rate of 600 l of water/ha (converted) with addition of 0.2% wetting agent. After the treatment, the pots were placed in a greenhouse and kept under good growth conditions for the test plants. After about 3 weeks, the effect was scored visually in percent in comparison to untreated controls. For example, 100% activity=the plants have died, 50% herbicidal activity or damage=plants reduced to 50% or plant material reduced by 50%, 0% activity=like control plants. Here, in the biological tests, the compounds of the general formula (I) according to the invention were in each case employed in a formulation, with the numerations of Tables I.1 to I.77 also applying here. Here, the herbicidal action of the compounds of the general formula (I) according to the invention was examined for the following harmful plants: VIOTR=Viola tricolor The respective herbicidal action was in each case determined at the same point in time after application of the formulation in question, i.e. damage of the harmful plant in question in %. Pre-emergence herbicidal action of the compounds of the general formula (I) according to the invention: […]

Stellaria media = test: Pre-emergence herbicidal action, STEME
Excerpt: as §1, with “STEME=Stellaria media” for “VIOTR=Viola tricolor”

Abutilon theophrasti = test: Pre-emergence herbicidal action, ABUTH
Excerpt: as §1, with “ABUTH=Abutilon theophrasti” for “VIOTR=Viola tricolor”

Ipomoea purpurea = test: Pre-emergence herbicidal action, PHBPU
Excerpt: as §1, with “PHBPU=Ipomoea purpurea” for “VIOTR=Viola tricolor”

[1] = test system: Polygonum convolvulus (=Fallopia convolvulus); test: Pre-emergence herbicidal action, POLCO
Excerpt: as §1, with “POLCO=Polygonum convolvulus (=Fallopia convolvulus)” for “VIOTR=Viola tricolor”

Structure (SMILES)	Pre-emergence herbicidal action VIOTR, damage of the harmful plant (Viola tricolor)	Pre-emergence herbicidal action STEME, damage of the harmful plant (Stellaria media)	Pre-emergence herbicidal action ABUTH, damage of the harmful plant (Abutilon theophrasti)	Pre-emergence herbicidal action PHBPU, damage of the harmful plant (Ipomoea purpurea)	Pre-emergence herbicidal action POLCO, damage of the harmful plant [1]
CC1=C(C)C(O)N(C2=NN(c3ccccn3)C(C)(C)C2)C1=O (stereo not drawn) [I.2-132]	80%	100%	70%	0%	40%
CC1=C(C)C(O)N(C2=NN(c3ccccc3)C(C(F)(F)F)C2)C1=O (stereo not drawn) [I.2-1413]	100%	100%	0%	0%	100%
CCC(=O)OC1C(C)=C(C)C(=O)N1C1=NN(c2ccccn2)C(C)(C)C1 (stereo not drawn) [I.23-132]	70%	100%	0%	30%	0%
CCC(=O)OC1C(C)=C(C)C(=O)N1C1=NN(c2ccccc2)CC1 (stereo not drawn) [I.23-621]	70%	0%	0%	0%	100%
CCC(=O)OC1C(C)=C(C)C(=O)N1C1=NN(c2ccccc2)C(C(F)(F)F)C1 (stereo not drawn) [I.23-1413]	100%	80%	0%	0%	80%
CCC(=O)OC1C(C)=C(Cl)C(=O)N1C1=NN(C)C(c2ccccc2)C1 (stereo not drawn) [I.24-1126]	10%	20%	0%	100%	0%
